Where two headings read alike, the source gives them in different places.
What was measured:
HCV genotype 1b replicon = assay: HCV replicon assay, genotype 1b replicon EC50; type: cell-based, Hepatitis C virus; details: Hepatitis C virus, read-out: EC50 [gt-1b]
Method in brief: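 Stable neomycin phosphotransferase-encoding replicon cell lines, kept under G418 selection beforehand, were plated with a compound dilution series without G418 and incubated 24-48 hours. Replicon RNA was then quantified, or luciferase activity read. EC50 was calculated as percent of DMSO control by four-parameter fit.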

[1] = molecular target: HCV NS3/4A protease genotype 1b (Hepatitis C virus genotype 1b, UniProt P26663); assay: HCV NS3/4A protease time-resolved fluorescence (TRF) assay, Ki against genotype 1b; type: biochemical
Method in brief: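 Ki was converted from fitted IC50 using IC50=Ki(1+[S]/KM) and 25 nM substrate. Protease (genotype 1b 0.2 nM, A156T 0.4 nM, 3a 0.025 nM) and compound were pre-mixed 30 min in pH 7.5 HEPES/NaCl/glycerol/DTT buffer. Cleavage then proceeded 2.5 h at room temperature, detected by time-resolved europium fluorescence (340/615 nm).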

[2] = IC50 [gt-1b] (nM), NS3/4A genotype 1b, enzyme 0.2 nM
[3] = IC50 [gt-1b], NS3/4A protease TRF assay, genotype 1b enzyme 0.2 nM
[4] = genotype 1b replicon, HCOOH salt
[5] = IC50 [gt-1b] (nM), NS3/4A genotype 1b, enzyme 0.2 nM, HCOOH salt

CC(C)(C)OC(=O)N[C@H]1CCCCC/C=C\[C@@H]2C[C@@]2(C(=O)NS(=O)(=O)C2(C)CC2)NC(=O)[C@@H]2C[C@]3(CCc4c(c(C(F)F)nc5ccc(Cl)cc45)O3)CN2C1=O [Example 331, tert-butyl [(2R,6S,12Z,13aS,14aR,16aS)-9′-chloro-5′-(difluoromethyl)-14a-{[(1-methylcyclopropyl)sulfonyl]carbamoyl}-5,16-dioxo-1,1′,2′,5,6,7,8,9,10,11,13a,14,14a,15,16,16a-hexadecahydrospiro[cyclopropa[e]pyrrolo[1,2-a][1,4]diazacyclopentadecine-2,3′-pyrano[2,3-c]quinolin]-6-yl]carbamate]
EC50 (HCV genotype 1b replicon; genotype 1b replicon): 6.71 nM | IC50 [1, 2]: 0.01 nM

CC1(OC(=O)N[C@H]2CCCCC/C=C\[C@@H]3C[C@@]3(C(=O)NS(=O)(=O)C3(C)CC3)NC(=O)[C@@H]3C[C@]4(CCc5c(c(C6CC6)nc6c(F)cccc56)O4)CN3C2=O)CCCCC1 [Example 176, 1-methylcyclohexyl [(2R,6S,12Z,13aS,14aR,16aS)-5′-cyclopropyl-7′-fluoro-14a-{[(1-methylcyclopropyl)sulfonyl]carbamoyl}-5,16-dioxo-1,1′,2′,5,6,7,8,9,10,11,13a,14,14a,15,16,16a-hexadecahydrospiro[cyclopropa[e]pyrrolo[1,2-a][1,4]diazacyclopentadecine-2,3′-pyrano[2,3-c]quinolin]-6-yl]carbamate]
EC50 (HCV genotype 1b replicon; genotype 1b replicon): 2.26 nM | IC50 [1, 2]: 0.026 nM

Cc1nc2ccccc2c2c1O[C@]1(CC2)C[C@H]2C(=O)N[C@]3(C(=O)NS(=O)(=O)C4(C)CC4)C[C@H]3/C=C\CCCCC[C@H](NC(=O)OC3(C(F)(F)F)CCCC3)C(=O)N2C1 [Example 326, 1-(trifluoromethyl)cyclopentyl [(2R,6S,12Z,13aS,14aR,16aS)-5′-methyl-14a-{[(1-methylcyclopropyl)sulfonyl]carbamoyl}-5,16-dioxo-1,1′,2′,5,6,7,8,9,10,11,13a,14,14a,15,16,16a-hexadecahydrospiro[cyclopropa[e]pyrrolo[1,2-a][1,4]diazacyclopentadecine-2,3′-pyrano[2,3-c]quinolin]-6-yl]carbamate]
EC50 (HCV genotype 1b replicon; genotype 1b replicon): 1.11 nM | IC50 [1, 2]: 0.023 nM

CC(C)COC(=O)N[C@H]1CCCCC/C=C\[C@@H]2C[C@@]2(C(=O)NS(=O)(=O)C2(C)CC2)NC(=O)[C@@H]2C[C@]3(CCc4c(c(C(F)(F)F)nc5ccc(Cl)cc45)O3)CN2C1=O [Example 383, 2-methylpropyl [(2R,6S,12Z,13aS,14aR,16aS)-9′-chloro-14a-{[(1-methylcyclopropyl)sulfonyl]carbamoyl}-5,16-dioxo-5′-(trifluoromethyl)-1,1′,2′,5,6,7,8,9,10,11,13a,14,14a,15,16,16a-hexadecahydrospiro[cyclopropa[e]pyrrolo[1,2-a][1,4]diazacyclopentadecine-2,3′-pyrano[2,3-c]quinolin]-6-yl]carbamate]
EC50 (HCV genotype 1b replicon; HCV replicon, genotype 1b): 38.3 nM | IC50 [1, 3]: 0.024 nM

COc1ccc2c3c(c(C4CC4)nc2c1)O[C@]1(CC3)C[C@H]2C(=O)N[C@]3(C(=O)NS(=O)(=O)C4(C)CC4)C[C@H]3/C=C\CCCCC[C@H](NC(=O)OC3CCOC3)C(=O)N2C1 (stereo partly drawn) [Example 278, tetrahydrofuran-3-yl [(2R,6S,12Z,13aS,14aR,16aS)-5′-cyclopropyl-8′-methoxy-14a-{[(1-methylcyclopropyl)sulfonyl]carbamoyl}-5,16-dioxo-1,1′,2′,5,6,7,8,9,10,11,13a,14,14a,15,16,16a-hexadecahydrospiro[cyclopropa[e]pyrrolo[1,2-a][1,4]diazacyclopentadecine-2,3′-pyrano[2,3-c]quinolin]-6-yl]carbamate]
EC50 (HCV genotype 1b replicon; [4]): 12.4 nM | IC50 [1, 5]: 0.027 nM

COc1ccc2nc(C)c3c(c2n1)CC[C@]1(C[C@H]2C(=O)N[C@]4(C(=O)NS(=O)(=O)C5(C)CC5)C[C@H]4/C=C\CCCCC[C@H](NC(=O)OC4CCCC4)C(=O)N2C1)O3 [Example 363, cyclopentyl [(2R,6S,12Z,13aS,14aR,16aS)-2′-methoxy-6′-methyl-14a-{[(1-methylcyclopropyl)sulfonyl]carbamoyl}-5,16-dioxo-1,5,6,7,8,9,9′,10,10′,11,13a,14,14a,15,16,16a-hexadecahydrospiro[cyclopropa[e]pyrrolo[1,2-a][1,4]diazacyclopentadecine-2,8′-pyrano[2,3-c][1,5]naphthyridin]-6-yl]carbamate]
EC50 (HCV genotype 1b replicon; HCV replicon, genotype 1b): 8.16 nM | IC50 [1, 3]: 0.011 nM

COc1ccc2nc(C(F)(F)F)c3c(c2c1)[C@](C)(O)C[C@]1(C[C@H]2C(=O)N[C@]4(C(=O)NS(=O)(=O)C5(C)CC5)C[C@H]4/C=C\CCCCC[C@H](NC(=O)OC(C)(C)C)C(=O)N2C1)O3 [Example 489, tert-butyl [(1′R,2S,6S,12Z,13aS,14aR,16aS)-1′-hydroxy-9′-methoxy-1′-methyl-14a-{[(1-methylcyclopropyl)sulfonyl]carbamoyl}-5,16-dioxo-5′-(trifluoromethyl)-1,1′,2′,5,6,7,8,9,10,11,13a,14,14a,15,16,16a-hexadecahydrospiro[cyclopropa[e]pyrrolo[1,2-a][1,4]diazacyclopentadecine-2,3′-pyrano[2,3-c]quinolin]-6-yl]carbamate]
EC50 (HCV genotype 1b replicon; HCV replicon, genotype 1b): 4.22 nM | IC50 [1, 3]: 0.016 nM

CC(C)COC(=O)N[C@H]1CCCCC/C=C\[C@@H]2C[C@@]2(C(=O)NS(=O)(=O)C2(C)CC2)NC(=O)[C@@H]2C[C@]3(CCc4c(c(C5CC5)nc5ccc(F)cc45)O3)CN2C1=O [Example 144, 2-methylpropyl [(2R,6S,12Z,13aS,14aR,16aS)-5′-cyclopropyl-9′-fluoro-14a-{[(1-methylcyclopropyl)sulfonyl]carbamoyl}-5,16-dioxo-1,1′,2′,5,6,7,8,9,10,11,13a,14,14a,15,16,16a-hexadecahydrospiro[cyclopropa[e]pyrrolo[1,2-a][1,4]diazacyclopentadecine-2,3′-pyrano[2,3-c]quinolin]-6-yl]carbamate]
EC50 (HCV genotype 1b replicon; genotype 1b replicon): 1.02 nM | IC50 [1, 2]: 0.007 nM

Cc1nc2ccc(F)cc2c2c1O[C@]1(CC2)C[C@H]2C(=O)N[C@]3(C(=O)NS(=O)(=O)C4(C)CC4)C[C@H]3/C=C\CCCCC[C@H](NC(=O)OCC(C)C)C(=O)N2C1 [Example 218, 2-methylpropyl [(2R,6S,12Z,13aS,14aR,16aS)-9′-fluoro-5′-methyl-14a-{[(1-methylcyclopropyl)sulfonyl]carbamoyl}-5,16-dioxo-1,1′,2′,5,6,7,8,9,10,11,13a,14,14a,15,16,16a-hexadecahydrospiro[cyclopropa[e]pyrrolo[1,2-a][1,4]diazacyclopentadecine-2,3′-pyrano[2,3-c]quinolin]-6-yl]carbamate]
EC50 (HCV genotype 1b replicon; genotype 1b replicon): 2.15 nM | IC50 [1, 2]: 0.005 nM

CC(C)(C)COC(=O)N[C@H]1CCCCC/C=C\[C@@H]2C[C@@]2(C(=O)NS(=O)(=O)C2(C)CC2)NC(=O)[C@@H]2C[C@]3(CCc4c(c(C(F)(F)F)nc5ccc(OCCN6CCOCC6)cc45)O3)CN2C1=O [Example 472, 2,2-dimethylpropyl [(2R,6S,12Z,13aS,14aR,16aS)-14a-{[(1-methylcyclopropyl)sulfonyl]carbamoyl}-9′-[2-(morpholin-4-yl)ethoxy]-5,16-dioxo-5′-(trifluoromethyl)-1,1′,2′,5,6,7,8,9,10,11,13a,14,14a,15,16,16a-hexadecahydrospiro[cyclopropa[e]pyrrolo[1,2-a][1,4]diazacyclopentadecine-2,3′-pyrano[2,3-c]quinolin]-6-yl]carbamate]
EC50 (HCV genotype 1b replicon; HCV replicon, genotype 1b, HCl salt): 3.43 nM | IC50 ([1]; IC50 [gt-1b], NS3/4A protease TRF assay, genotype 1b enzyme 0.2 nM, HCl salt): 0.02 nM

Cc1nc2cc(F)ccc2c2c1O[C@]1(CC2)C[C@H]2C(=O)N[C@]3(C(=O)NS(=O)(=O)C4(C)CC4)C[C@H]3/C=C\CCCCC[C@H](NC(=O)OC(C)(C)C)C(=O)N2C1 [Example 71, tert-butyl [(2R,6S,12Z,13aS,14aR,16aS)-8′-fluoro-5′-methyl-14a-{[(1-methylcyclopropyl)sulfonyl]carbamoyl}-5,16-dioxo-1,1′,2′,5,6,7,8,9,10,11,13a,14,14a,15,16,16a-hexadecahydrospiro[cyclopropa[e]pyrrolo[1,2-a][1,4]diazacyclopentadecine-2,3′-pyrano[2,3-c]quinolin]-6-yl]carbamate]
EC50 (HCV genotype 1b replicon; genotype 1b replicon, K+ salt): 0.628 nM | IC50 ([1]; IC50 [gt-1b] (nM), NS3/4A genotype 1b, enzyme 0.2 nM, K+ salt): 0.023 nM

COc1ccc2c3c(c(C4CC4)nc2c1)O[C@]1(CC3)C[C@H]2C(=O)N[C@]3(C(=O)NS(=O)(=O)C4(C)CC4)C[C@H]3/C=C\CCCCC[C@H](NC(=O)CC3CCCC3)C(=O)N2C1 [Example 270, (2R,6S,12Z,13aS,14aR,16aS)-6-[(cyclopentylacetyl)amino]-5′-cyclopropyl-8′-methoxy-N-[(1-methylcyclopropyl)sulfonyl]-5,16-dioxo-1,1′,2′,6,7,8,9,10,11,13a,14,15,16,16a-tetradecahydrospiro[cyclopropa[e]pyrrolo[1,2-a][1,4]diazacyclopentadecine-2,3′-pyrano[2,3-c]quinoline]-14a(5H)-carboxamide]
EC50 (HCV genotype 1b replicon; [4]): 24.2 nM | IC50 [1, 5]: 0.044 nM
